Test results taken from ChEMBL document CHEMBL4706748, “Targeting KRAS Mutant Cancers via Combination Treatment: Discovery of a Pyridopyridazinone pan-RAF Kinase Inhibitor” (ACS Med Chem Lett, 2021).
Activity calls are given as the source filed them. No cut-off for these calls is given here.

Tests used:
A549 [1] = assay: Antiproliferative activity against human A549 cells harboring KRAS mutant assessed as reduction in cell viability; format: functional, cell-based
A549 [2] = assay: Synergistic antiproliferative activity against human A549 cells harboring KRAS mutant assessed as reduction in cell viability in presence of 100 nM cobi-metinib; format: functional, cell-based
A-375 = assay: Antiproliferative activity against human A375 cells harboring BRAF mutant assessed as reduction in cell viability; format: functional, cell-based
[3] = Oral bioavailability in mouse at 5 mg/kg; format: ADME, organism-based; conditions: in vivo
[4] = Volume of distribution in mouse at 1 mg/kg, iv; format: ADME, organism-based; conditions: in vivo
[5] = Clearance in mouse at 1 mg/kg, iv; format: ADME, organism-based; conditions: in vivo
[6] = Half life in mouse; format: ADME, organism-based; conditions: in vivo
[7] = Efflux ratio of permeability across basolateral to apical side over apical to basolateral side in MDCK cells; format: ADME, cell-based, Canis lupus familiaris; conditions: dog
[8] = molecular target: RAF proto-oncogene serine/threonine-protein kinase (Homo sapiens, UniProt P04049, Y340D/Y341D); assay: Inhibition of CRAF Y340D/Y341D mutant (unknown origin) assessed as using inactive phosphorylated MAP2K1 substrate preincubated for 30 mins measured after 90 mins by DELFIA assay
RAF proto-oncogene serine/threonine-protein kinase, sequence (P04049 whole entry Y340D/Y341D): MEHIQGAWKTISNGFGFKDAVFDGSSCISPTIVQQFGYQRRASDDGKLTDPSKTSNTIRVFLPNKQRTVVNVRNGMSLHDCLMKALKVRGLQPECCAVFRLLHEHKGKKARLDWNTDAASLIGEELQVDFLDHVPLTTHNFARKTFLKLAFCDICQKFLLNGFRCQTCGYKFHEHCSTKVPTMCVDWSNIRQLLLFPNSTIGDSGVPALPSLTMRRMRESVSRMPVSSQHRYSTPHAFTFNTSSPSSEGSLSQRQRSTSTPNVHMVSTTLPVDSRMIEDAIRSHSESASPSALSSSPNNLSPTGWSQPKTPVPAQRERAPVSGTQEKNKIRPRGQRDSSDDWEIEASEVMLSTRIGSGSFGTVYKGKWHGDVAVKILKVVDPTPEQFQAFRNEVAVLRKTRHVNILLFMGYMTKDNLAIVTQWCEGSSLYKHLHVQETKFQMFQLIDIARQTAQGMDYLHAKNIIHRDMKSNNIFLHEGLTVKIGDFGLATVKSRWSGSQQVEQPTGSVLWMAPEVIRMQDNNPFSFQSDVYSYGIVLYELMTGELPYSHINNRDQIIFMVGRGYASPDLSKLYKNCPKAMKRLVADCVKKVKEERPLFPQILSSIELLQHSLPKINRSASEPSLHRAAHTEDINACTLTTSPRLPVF

[9] = Apparent permeability across apical to basolateral side in MDCK cells; format: ADME, cell-based, Canis lupus familiaris; conditions: dog
[10] = molecular target: Serine/threonine-protein kinase B-raf (Homo sapiens, UniProt P15056); assay: Inhibition of BRAF (unknown origin) (416 to 766) assessed as using inactive phosphorylated MAP2K1 substrate preincubated for 30 mins measured after 90 mins by DELFIA assay
Serine/threonine-protein kinase B-raf, sequence (P15056 whole entry): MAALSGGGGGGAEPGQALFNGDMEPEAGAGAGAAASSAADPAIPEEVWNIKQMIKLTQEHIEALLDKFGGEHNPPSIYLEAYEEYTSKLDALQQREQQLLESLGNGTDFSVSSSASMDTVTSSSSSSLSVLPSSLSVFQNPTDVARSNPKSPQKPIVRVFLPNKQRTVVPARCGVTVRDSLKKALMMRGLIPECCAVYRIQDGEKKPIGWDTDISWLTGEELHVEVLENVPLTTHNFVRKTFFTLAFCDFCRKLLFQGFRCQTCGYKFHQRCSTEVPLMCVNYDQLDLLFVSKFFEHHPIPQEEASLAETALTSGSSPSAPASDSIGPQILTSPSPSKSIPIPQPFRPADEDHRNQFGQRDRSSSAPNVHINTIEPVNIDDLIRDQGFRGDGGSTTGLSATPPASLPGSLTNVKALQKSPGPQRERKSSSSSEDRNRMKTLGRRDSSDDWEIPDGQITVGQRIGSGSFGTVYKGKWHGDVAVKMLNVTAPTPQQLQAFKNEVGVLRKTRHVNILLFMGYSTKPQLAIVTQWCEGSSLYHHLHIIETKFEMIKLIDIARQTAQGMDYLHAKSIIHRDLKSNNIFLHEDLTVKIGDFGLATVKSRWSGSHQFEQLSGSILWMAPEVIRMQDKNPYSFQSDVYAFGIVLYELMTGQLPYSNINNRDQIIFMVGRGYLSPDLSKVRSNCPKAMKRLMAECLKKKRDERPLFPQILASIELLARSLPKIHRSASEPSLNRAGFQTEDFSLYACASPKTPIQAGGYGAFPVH

Mus musculus [11] = assay: In vivo inhibition of RAF in human HCT116 cells xenografted in NCR mouse assessed as inhibition of SPRY4 gene expression at 15 mg/kg, po qd for 4 days measured upto 24 hrs of last dose; format: functional, organism-based; conditions: time 4.0 day
Mus musculus [12] = assay: In vivo inhibition of RAF in human HCT116 cells xenografted in NCR mouse assessed as inhibition of SPRY4 gene expression in presence of Cobi-metinib at 15 mg/kg, po qd for 4 days measured at 24 hrs of last dose; format: functional, organism-based; conditions: time 4.0 day
Mus musculus [13] = assay: In vivo inhibition of RAF in human HCT116 cells xenografted in NCR mouse assessed as inhibition of DUSP6 gene expression at 15 mg/kg, po qd for 4 days measured upto 24 hrs of last dose; format: functional, organism-based; conditions: time 4.0 day
Mus musculus [14] = assay: In vivo inhibition of RAF in human HCT116 cells xenografted in NCR mouse assessed as inhibition of SPRY4 gene expression in presence of Cobi-metinib at 15 mg/kg, po qd for 4 days measured upto 8 hrs of last dose; format: functional, organism-based; conditions: time 4.0 day
Mus musculus [15] = assay: In vivo inhibition of RAF in human HCT116 cells xenografted in NCR mouse assessed as inhibition of DUSP6 gene expression in presence of Cobi-metinib at 15 mg/kg, po qd for 4 days measured at 24 hrs of last dose; format: functional, organism-based; conditions: time 4.0 day
Mus musculus [16] = assay: In vivo inhibition of RAF in human HCT116 cells xenografted in NCR mouse assessed as inhibition of DUSP6 gene expression in presence of Cobi-metinib at 15 mg/kg, po qd for 4 days measured upto 8 hrs of last dose; format: functional, organism-based; conditions: time 4.0 day
Mus musculus [17] = assay: In vivo inhibition of RAF in human HCT116 cells xenografted in NCR mouse assessed as inhibition of pRSK gene expression in presence of Cobi-metinib at 15 mg/kg, po qd for 4 days measured upto 8 hrs of last dose; format: functional, organism-based; conditions: time 4.0 day
Mus musculus [18] = assay: In vivo inhibition of RAF in human HCT116 cells xenografted in NCR mouse assessed as inhibition of pRSK gene expression in presence of Cobi-metinib at 15 mg/kg, po qd for 4 days measured at 24 hrs of last dose; format: functional, organism-based; conditions: time 4.0 day
Mus musculus [19] = assay: In vivo inhibition of RAF in human HCT116 cells xenografted in NCR mouse assessed as inhibition of SPRY4 gene expression at 5 mg/kg, po qd for 4 days measured upto 24 hrs of last dose; format: functional, organism-based; conditions: time 4.0 day
Mus musculus [20] = assay: In vivo inhibition of RAF in human HCT116 cells xenografted in NCR mouse assessed as inhibition of DUSP6 gene expression at 5 mg/kg, po qd for 4 days measured upto 24 hrs of last dose; format: functional, organism-based; conditions: time 4.0 day

| SMILES | IC50 (A549 [1]) | IC50 (A549 [2]) | IC50 (A-375) | efflux ratio [7] | Ki [8] | Papp A→B [9] | Ki [10] | further results |
| --- | --- | --- | --- | --- | --- | --- | --- | --- |
| CNc1ncc2cc(-c3cc(NC(=O)NCCC(C)(C)C)c(F)cc3C)c(C)nc2n1 [LY-3009120] | 545 nM | 45.6 nM | 28.3 nM | – | – | – | – | – |
| Cc1cc(F)c(NC(=O)c2cccc(C(C)(C)C#N)c2)cc1-c1cnc2c(=O)n(C)ncc2c1 | 5470 nM | 369 nM | – | 0.86 | 0.062 nM | 140 nm/s | 0.19 nM | bioavailability [3]: 37%; Vd [4]: 1.7 L/kg; inhibition (Mus musculus [11]): Active; inhibition (Mus musculus [12]): inactive; clearance [5]: 1.02 L/h/kg; half-life [6]: 1.9 h; inhibition (Mus musculus [13]): Active; inhibition (Mus musculus [14]): Active; inhibition (Mus musculus [15]): inactive; inhibition (Mus musculus [16]): Active; inhibition (Mus musculus [17]): Active; inhibition (Mus musculus [18]): inactive |
| Cc1cc(F)c(NC(=O)NCCC(C)(C)C)cc1Nc1ccc2ncn(C)c(=O)c2c1F | 2900 nM | 2900 nM | – | – | – | – | < 0.08 nM | – |
| O=C(c1ccc(F)c(F)c1Nc1ccc(I)cc1F)N1CC(O)([C@@H]2CCCCN2)C1 | – | – | – | – | – | – | – | inhibition (Mus musculus [19]): Active; inhibition (Mus musculus [20]): Active |

Continued, in another order:

| IC50 (A549 [1]) | IC50 (A549 [2]) | IC50 (A-375) | efflux ratio [7] | Ki [8] | Papp A→B [9] | Ki [10] | SMILES | further results |
| --- | --- | --- | --- | --- | --- | --- | --- | --- |
| 1590 nM | 187 nM | 210 nM | 0.5 | < 0.05 nM | 87 nm/s | < 0.08 nM | Cc1cc(F)c(NC(=O)NCCC(C)(C)C)cc1-c1ccc2c(=O)n(C)ncc2c1 | bioavailability [3]: 2%; Vd [4]: 2.1 L/kg; clearance [5]: 1.32 L/h/kg; half-life [6]: 1.3 h |
| 1360 nM | 138 nM | – | 1 | < 0.05 nM | 78 nm/s | < 0.08 nM | Cc1cc(F)c(NC(=O)c2cccc(C(C)(C)C#N)c2)cc1-c1ccc2c(=O)n(C)ncc2c1 | – |
| 668 nM | 148 nM | 224 nM | – | < 0.05 nM | – | < 0.08 nM | Cc1cc(F)c(NC(=O)NCCC(C)(C)C)cc1-c1ccc2cc(N)ncc2c1 | – |
| 7730 nM | 1120 nM | – | 0.74 | 0.06 nM | 81 nm/s | 0.12 nM | Cc1cc(F)c(C(=O)NCCCC(C)(C)C)cc1-c1ccc2c(=O)n(C)ncc2c1 | – |
| 337 nM | 39.2 nM | 32.2 nM | – | 0.081 nM | – | 0.102 nM | CNc1ncc2cc(-c3cc(NC(=O)NCCC(C)(C)C)c(F)cc3C)c(=O)n(C)c2n1 | – |
